Assay [1] addresses T1, human Siglec-2/CD22 protein (Homo sapiens, UniProt P20273).
T1 construct: purchased Acro Biosystems SI2-H82E3
T1 sequence (P20273 20-847): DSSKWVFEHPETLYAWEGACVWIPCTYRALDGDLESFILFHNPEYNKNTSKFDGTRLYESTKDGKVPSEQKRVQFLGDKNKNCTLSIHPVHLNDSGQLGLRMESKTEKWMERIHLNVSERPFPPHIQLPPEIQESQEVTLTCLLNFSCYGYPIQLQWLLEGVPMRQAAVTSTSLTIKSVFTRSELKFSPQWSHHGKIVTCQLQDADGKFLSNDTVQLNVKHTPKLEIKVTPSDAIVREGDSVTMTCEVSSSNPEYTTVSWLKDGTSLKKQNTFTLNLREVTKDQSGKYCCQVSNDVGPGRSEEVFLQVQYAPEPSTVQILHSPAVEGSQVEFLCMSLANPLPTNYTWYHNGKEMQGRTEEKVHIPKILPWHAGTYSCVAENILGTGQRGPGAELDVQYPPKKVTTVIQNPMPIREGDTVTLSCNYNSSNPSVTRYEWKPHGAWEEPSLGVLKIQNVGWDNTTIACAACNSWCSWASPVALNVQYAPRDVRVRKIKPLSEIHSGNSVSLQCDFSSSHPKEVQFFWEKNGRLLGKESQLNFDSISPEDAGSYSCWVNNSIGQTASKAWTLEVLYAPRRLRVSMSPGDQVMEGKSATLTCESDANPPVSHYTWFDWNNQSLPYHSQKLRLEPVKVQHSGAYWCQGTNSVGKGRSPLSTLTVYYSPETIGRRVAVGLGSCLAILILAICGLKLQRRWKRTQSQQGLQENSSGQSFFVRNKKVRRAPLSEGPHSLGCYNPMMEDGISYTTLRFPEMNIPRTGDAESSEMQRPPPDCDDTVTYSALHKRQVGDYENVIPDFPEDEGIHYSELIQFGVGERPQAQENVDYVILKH
The assay is described as follows: SPR binding affinity to human CD22. As to conditions: steady-state analysis. How it is done:
(§1) Prior to immobilization, CD22 proteins were treated with SialoExo (Genovis, Cat #G1-SM1-020) for 4 hours at 37° C. to remove native sialic acid residues.
(§2) Capture of biotinylated CD22 constructs was performed using a Cytiva SA chip (BR100398) on a Biacore 8K instrument.
(§3) Binding experiments of Siglec-ligand conjugated proteins or Siglec ligand compounds were performed on the surfaces prepared above in 10 mM HEPES, 150 mM NaCl, 0.05% Tween-20, pH 7.5, 1% DMSO as the running buffer. […] The compounds were then allowed to dissociate from the surface for 120 seconds. […] Solvent correction was performed using 0.5, 1, 1.5, and 2% DMSO spike into running buffer without DMSO. […] Data was analyzed using steady-state analysis in Biacore Insight Evaluation Software, version 3.0 for Siglec ligand compounds.
A general note: In SPR one partner is held on a chip, and binding of the other changes the refractive index at the surface.

Assay [2] concerns the target T2, mouse Siglec-2-Fc-Avi (CD22) (Mus musculus, UniProt P35329).
T2 construct: made in house
T2 sequence (P35329 22-708 limits assumed): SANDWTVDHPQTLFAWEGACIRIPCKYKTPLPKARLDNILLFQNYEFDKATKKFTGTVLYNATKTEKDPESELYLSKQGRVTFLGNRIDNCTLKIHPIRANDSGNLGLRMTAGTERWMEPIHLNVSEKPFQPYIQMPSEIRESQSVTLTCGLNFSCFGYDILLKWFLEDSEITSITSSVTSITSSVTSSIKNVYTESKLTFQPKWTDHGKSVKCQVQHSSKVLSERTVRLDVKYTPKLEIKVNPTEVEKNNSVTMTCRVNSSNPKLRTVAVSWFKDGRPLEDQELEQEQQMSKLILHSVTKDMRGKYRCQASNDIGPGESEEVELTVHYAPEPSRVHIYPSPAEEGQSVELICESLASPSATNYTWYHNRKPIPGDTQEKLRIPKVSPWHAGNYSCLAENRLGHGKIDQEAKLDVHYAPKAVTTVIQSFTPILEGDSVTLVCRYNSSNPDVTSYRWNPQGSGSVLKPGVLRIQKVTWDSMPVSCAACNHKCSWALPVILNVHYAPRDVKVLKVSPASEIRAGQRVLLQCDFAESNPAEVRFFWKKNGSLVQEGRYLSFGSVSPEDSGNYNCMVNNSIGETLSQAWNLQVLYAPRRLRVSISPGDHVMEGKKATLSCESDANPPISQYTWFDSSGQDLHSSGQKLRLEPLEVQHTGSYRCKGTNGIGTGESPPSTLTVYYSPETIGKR
Description: SPR binding affinity to mouse CD22. The note with it: steady-state analysis. The method, then: as §1, §2, §3

For the molecule `C#CCOCCOCCO[C@]1(C(=O)O)C[C@H](O)[C@@H](NC(C)=O)[C@H]([C@H](O)[C@H](O)CNCc2cccc(Oc3ccccc3)c2)O1` [Compound 17, (2R,4S,5R,6R)-5-acetamido-6-((1R,2R)-1,2-dihydroxy-3-((3-phenoxybenzyl)amino)propyl)-4-hydroxy-2-(2-(2-(prop-2-yn-1-yloxy)ethoxy)ethoxy)tetrahydro-2H-pyran-2-carboxylic acid], the Kd in assay [1] is < 1000 nM; in assay [2], > 10000 nM.
Turning to `C#CCOCCOCCNc1c(NCCCCCCO[C@]2(C(=O)O)C[C@H](O)[C@@H](NC(=O)CO)[C@H]([C@H](O)[C@H](O)CNC(=O)c3cccc(Oc4ccccc4)c3)O2)c(=O)c1=O` [Compound 39, (2R,4S,5R,6R)-6-((1R,2R)-1,2-dihydroxy-3-(3-phenoxybenzamido)propyl)-2-((6-((3,4-dioxo-2-((2-(2-(prop-2-yn-1-yloxy)ethoxy)ethyl)amino)cyclobut-1-en-1-yl)amino)hexyl)oxy) -4-hydroxy-5-(2-hydroxyacetamido) tetrahydro-2H-pyran-2-carboxylic acid], the Kd in assay [1] was < 1000 nM; in assay [2], 1000 to 10000 nM.
Taken in the same sequence, the figures for `C#CCOCCCCCCO[C@]1(C(=O)O)C[C@H](O)[C@@H](NC(=O)NCC)[C@H]([C@H](O)[C@H](O)CNC(=O)Cc2ccc(Cl)cc2)O1` [Compound 87, (2R,4S,5R,6R)-6-((1R,2R)-3-(2-(4-chlorophenyl)acetamido)-1,2-dihydroxypropyl)-5-(3-ethylureido)-4-hydroxy-2-((6-(prop-2-yn-1-yloxy)hexyl)oxy)tetrahydro-2H-pyran-2-carboxylic acid] were < 1000 nM and 1000 to 10000 nM.
Taken in the same sequence, the figures for `C#CCOCCCCCCO[C@]1(C(=O)O)C[C@H](O)[C@@H](NC(=O)c2ccccc2)[C@H]([C@H](O)[C@H](O)CNC(=O)Cc2ccc(Cl)cc2)O1` [Compound 92, (2R,4S,5R,6R)-5-benzamido-6-((1R,2R)-3-(2-(4-chlorophenyl)acetamido)-1,2-dihydroxypropyl)-4-hydroxy-2-((6-(prop-2-yn-1-yloxy)hexyl)oxy)tetrahydro-2H-pyran-2-carboxylic acid] were < 1000 nM and > 10000 nM.
For `C#CCOP(=O)(O)OCCCCCO[C@]1(C(=O)O)C[C@H](O)[C@@H](NC(=O)CO)[C@H]([C@H](O)[C@H](O)CNC(=O)Cc2ccc(Cl)cc2)O1` [Compound 95, (2R,4S,5R,6R)-6-((1R,2R)-3-(2-(4-chlorophenyl)acetamido)-1,2-dihydroxypropyl)-4-hydroxy-2-((5-((hydroxy(prop-2-yn-1-yloxy)phosphoryl)oxy)pentyl)oxy)-5-(2-hydroxyacetamido)tetrahydro-2H-pyran-2-carboxylic acid], the results for the Kd in assay [1] and in assay [2] were < 1000 nM and 1000 to 10000 nM, respectively.
Taken in the same sequence, the figures for `C#CCOP(=O)(O)OCCCCO[C@]1(C(=O)O)C[C@H](O)[C@@H](NC(=O)CO)[C@H]([C@H](O)[C@H](O)CNC(=O)Cc2ccc(Cl)cc2)O1` [Compound 115, (2R,4S,5R,6R)-6-((1R,2R)-3-(2-(4-chlorophenyl)acetamido)-1,2-dihydroxypropyl)-4-hydroxy-2-(4-((hydroxy(prop-2-yn-1-yloxy)phosphoryl)oxy)butoxy)-5-(2-hydroxyacetamido)tetrahydro-2H-pyran-2-carboxylic acid] were < 1000 nM and 1000 to 10000 nM.
Taken in the same sequence, the figures for `C#CCOC(=O)NCc1ccc(CO[C@]2(C(=O)O)C[C@H](O)[C@@H](NC(=O)CO)[C@H]([C@H](O)[C@H](O)CNC(=O)Cc3ccc(Cl)cc3)O2)cc1` [Compound 117, (2R,4S,5R,6R)-6-((1R,2R)-3-(2-(4-chlorophenyl)acetamido)-1,2-dihydroxypropyl)-4-hydroxy-5-(2-hydroxyacetamido)-2-((4-((((prop-2-yn-1-yloxy)carbonyl)amino)methyl)benzyl)oxy)tetrahydro-2H-pyran-2-carboxylic acid] were < 1000 nM and < 1000 nM.
`C#CCCOc1ccc(CO[C@]2(C(=O)O)C[C@H](O)[C@@H](NC(=O)CO)[C@H]([C@H](O)[C@H](O)CNC(=O)Cc3ccc(N4CCOCC4)cc3)O2)cc1` [Compound 139, (2R,4S,5R,6R)-2-((4-(but-3-yn-1-yloxy)benzyl)oxy)-6-((1R,2R)-1,2-dihydroxy-3-(2-(4-morpholinophenyl)acetamido)propyl)-4-hydroxy-5-(2-hydroxyacetamido)tetrahydro-2H-pyran-2-carboxylic acid]: the Kd in assay [1] is 1000 to 10000 nM; in assay [2] it was < 1000 nM.
The like results for `C#CCOCCCCCCO[C@]1(C(=O)O)C[C@H](O)[C@@H](Nc2c(NC)c(=O)c2=O)[C@H]([C@H](O)[C@H](O)CNC(=O)Cc2ccc(Cl)cc2)O1` [Compound 191, (2R,4S,5R,6R)-6-((1R,2R)-3-(2-(4-chlorophenyl)acetamido)-1,2-dihydroxypropyl)-4-hydroxy-5-((2-(methylamino)-3,4-dioxocyclobut-1-en-1-yl)amino)-2-((6-(prop-2-yn-1-yloxy)hexyl)oxy)tetrahydro-2H-pyran-2-carboxylic acid] were, in that order, < 1000 nM and > 10000 nM.
Taken in the same sequence, the figures for `C#CCOCCCCCCO[C@]1(C(=O)O)C[C@H](O)[C@@H](NC(=O)CO)[C@H]([C@H](O)[C@H](O)CNC(=O)Cc2ccc(N3CCC(O)CC3)cc2)O1` [Compound 194, (2R,4S,5R,6R)-6-((1R,2R)-1,2-dihydroxy-3-(2-(4-(4-hydroxypiperidin-1-yl)phenyl)acetamido)propyl)-4-hydroxy-5-(2-hydroxyacetamido)-2-((6-(prop-2-yn-1-yloxy)hexyl)oxy)tetrahydro-2H-pyran-2-carboxylic acid] were 1000 to 10000 nM and 1000 to 10000 nM.
The like results for `C#CCOCCCCCCO[C@]1(C(=O)O)C[C@H](O)[C@@H](NC(=O)CO)[C@H]([C@H](O)[C@H](O)CNC(=O)Cc2ccc(-c3ccc(NC(C)=O)cc3)cc2)O1` [Compound 204, (2R,4S,5R,6R)-6-((1R,2R)-3-(2-(4′-acetamido-[1,1′-biphenyl]-4-yl)acetamido)-1,2-dihydroxypropyl)-4-hydroxy-5-(2-hydroxyacetamido)-2-((6-(prop-2-yn-1-yloxy)hexyl)oxy)tetrahydro-2H-pyran-2-carboxylic acid] were, in that order, < 1000 nM and < 1000 nM.
As for `C#CCOCCOP(=O)(O)OCCCCCCO[C@]1(C(=O)O)C[C@H](O)[C@@H](NC(=O)CO)[C@H]([C@H](O)[C@H](O)CNC(=O)Cc2ccc(C(F)F)cc2)O1` [Compound 215, (2R,4S,5R,6R)-6-((1R,2R)-3-(2-(4-(difluoromethyl)phenyl)acetamido)-1,2-dihydroxypropyl)-4-hydroxy-2-((6-((hydroxy(2-(prop-2-yn-1-yloxy)ethoxy)phosphoryl)oxy)hexyl)oxy)-5-(2-hydroxyacetamido)tetrahydro-2H-pyran-2-carboxylic acid], the dissociation constant Kd in assay [1] was < 1000 nM; in assay [2], > 10000 nM.

The Kd is a measure of binding affinity in units of concentration. A high value points to a looser complex.

(Values after patent US20250064941A1, “SIGLEC LIGANDS, CONJUGATES, AND METHODS OF USE THEREOF” (Osprey Biopharmaceuticals, Inc., priority 2023, published 2025).)
